The values that follow come from patent US7759331B2, “Pyridine-containing macroheterococylic compounds as kinase inhibitors” (Janssen Pharmaceutica NV, priority 2006, dated 2010).

Structures are written as SMILES.

Common to all, as to assay: Protein kinase selectivity panel
What all share (type): biochemical
Common to all, as to settings: 1.0 μM compound, 10 μM ATP

One experiment has as its target T1, ZAP-70(h) (Homo sapiens, UniProt P43403).
T1 construct: purchased Upstate Cell Signaling Solutions (KinaseProfiler Selectivity Screening Service)
T1 sequence (P43403 1-619): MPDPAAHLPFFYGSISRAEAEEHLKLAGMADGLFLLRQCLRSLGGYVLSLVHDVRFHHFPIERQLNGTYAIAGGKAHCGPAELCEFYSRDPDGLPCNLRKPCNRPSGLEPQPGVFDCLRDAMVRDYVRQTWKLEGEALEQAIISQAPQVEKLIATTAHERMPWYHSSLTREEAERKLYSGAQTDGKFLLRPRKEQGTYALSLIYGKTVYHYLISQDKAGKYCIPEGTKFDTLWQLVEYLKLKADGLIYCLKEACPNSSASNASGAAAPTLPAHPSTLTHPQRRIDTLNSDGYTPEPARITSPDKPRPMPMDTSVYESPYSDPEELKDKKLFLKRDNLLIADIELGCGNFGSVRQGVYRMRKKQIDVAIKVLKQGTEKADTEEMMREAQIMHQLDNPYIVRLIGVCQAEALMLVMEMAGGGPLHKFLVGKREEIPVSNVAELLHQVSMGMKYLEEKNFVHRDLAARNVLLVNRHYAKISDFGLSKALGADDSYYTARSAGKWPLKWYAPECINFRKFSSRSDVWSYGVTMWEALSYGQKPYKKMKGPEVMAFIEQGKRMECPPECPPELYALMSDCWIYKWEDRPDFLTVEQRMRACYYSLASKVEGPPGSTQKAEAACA
The procedure, abridged:
(§1)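 Each kinase was tested for phosphorylation of its appropriate peptide or protein substrate with compound present at 1.0 μM. ATP was held at 10 μM, and reactions were run within the linear range with respect to time.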

A further experiment concerns the target IR(h) (Homo sapiens, UniProt P06213). The method, boiled down: as §1
The target in the next experiment is PKA(h) (Homo sapiens, UniProt P17612). The procedure, abridged:
as §1

For the next experiment, the target named is MSK1(h) (Homo sapiens, UniProt O75582). The procedure, abridged:
as §1

Another experiment concerns the target CK1δ(h) (Homo sapiens, UniProt P48730). The method, boiled down: as §1
A further experiment addresses CK2(h) (Homo sapiens, UniProt P68400). The method, boiled down: as §1
The target in a further experiment is BTK(h) (Homo sapiens, UniProt Q06187). The method, boiled down: as §1
Sequence of BTK(h) (Q06187 whole entry): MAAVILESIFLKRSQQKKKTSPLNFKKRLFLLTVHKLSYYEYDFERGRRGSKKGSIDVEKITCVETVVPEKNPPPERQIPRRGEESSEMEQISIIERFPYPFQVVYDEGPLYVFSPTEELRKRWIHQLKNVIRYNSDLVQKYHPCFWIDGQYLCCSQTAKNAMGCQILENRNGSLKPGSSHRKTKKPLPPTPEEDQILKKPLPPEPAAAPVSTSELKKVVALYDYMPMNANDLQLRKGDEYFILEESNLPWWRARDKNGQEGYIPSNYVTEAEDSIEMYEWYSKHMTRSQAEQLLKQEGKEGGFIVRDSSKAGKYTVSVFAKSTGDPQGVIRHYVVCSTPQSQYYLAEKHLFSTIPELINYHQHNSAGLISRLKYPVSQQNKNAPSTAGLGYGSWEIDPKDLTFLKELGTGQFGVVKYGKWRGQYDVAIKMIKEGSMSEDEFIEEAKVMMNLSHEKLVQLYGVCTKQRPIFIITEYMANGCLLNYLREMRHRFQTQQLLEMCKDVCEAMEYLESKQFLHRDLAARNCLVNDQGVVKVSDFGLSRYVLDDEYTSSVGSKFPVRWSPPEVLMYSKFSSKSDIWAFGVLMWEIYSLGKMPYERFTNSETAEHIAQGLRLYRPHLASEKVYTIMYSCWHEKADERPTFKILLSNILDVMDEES
The target of the next experiment is MEK1(h) (Homo sapiens, UniProt Q02750). The method, boiled down: as §1
Sequence of MEK1(h) (Q02750 whole entry): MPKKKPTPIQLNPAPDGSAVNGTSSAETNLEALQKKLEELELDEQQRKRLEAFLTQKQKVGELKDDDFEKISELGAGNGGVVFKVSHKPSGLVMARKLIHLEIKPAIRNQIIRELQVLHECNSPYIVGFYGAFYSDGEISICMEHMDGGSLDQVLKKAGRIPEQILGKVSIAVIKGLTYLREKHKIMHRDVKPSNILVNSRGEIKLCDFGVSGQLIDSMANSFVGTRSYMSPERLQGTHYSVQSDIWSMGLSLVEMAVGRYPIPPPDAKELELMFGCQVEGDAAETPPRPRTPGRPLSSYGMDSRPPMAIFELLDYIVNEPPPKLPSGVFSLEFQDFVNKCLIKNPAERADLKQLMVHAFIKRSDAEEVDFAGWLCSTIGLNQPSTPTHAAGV
The target of a further experiment is T2, SAPK4(h) (Homo sapiens, UniProt O15264).
T2 sequence (O15264 1-365): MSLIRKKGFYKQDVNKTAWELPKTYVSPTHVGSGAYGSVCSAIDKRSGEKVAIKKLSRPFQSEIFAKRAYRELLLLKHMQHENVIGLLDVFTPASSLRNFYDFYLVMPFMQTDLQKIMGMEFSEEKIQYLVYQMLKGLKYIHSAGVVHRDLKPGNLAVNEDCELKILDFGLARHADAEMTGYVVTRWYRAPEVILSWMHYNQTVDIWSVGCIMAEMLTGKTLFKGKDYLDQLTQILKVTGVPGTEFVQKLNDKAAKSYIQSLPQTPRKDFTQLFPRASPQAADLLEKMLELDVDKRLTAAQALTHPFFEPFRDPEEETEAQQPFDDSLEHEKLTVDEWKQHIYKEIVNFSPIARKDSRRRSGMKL
The method, boiled down:
as §1

The next experiment addresses MAPK1(h) (Homo sapiens, UniProt P27361). The procedure, abridged: as §1
The target in a further experiment is T3, IKKα(h) (Homo sapiens, UniProt O15111).
T3 sequence (O15111 1-745): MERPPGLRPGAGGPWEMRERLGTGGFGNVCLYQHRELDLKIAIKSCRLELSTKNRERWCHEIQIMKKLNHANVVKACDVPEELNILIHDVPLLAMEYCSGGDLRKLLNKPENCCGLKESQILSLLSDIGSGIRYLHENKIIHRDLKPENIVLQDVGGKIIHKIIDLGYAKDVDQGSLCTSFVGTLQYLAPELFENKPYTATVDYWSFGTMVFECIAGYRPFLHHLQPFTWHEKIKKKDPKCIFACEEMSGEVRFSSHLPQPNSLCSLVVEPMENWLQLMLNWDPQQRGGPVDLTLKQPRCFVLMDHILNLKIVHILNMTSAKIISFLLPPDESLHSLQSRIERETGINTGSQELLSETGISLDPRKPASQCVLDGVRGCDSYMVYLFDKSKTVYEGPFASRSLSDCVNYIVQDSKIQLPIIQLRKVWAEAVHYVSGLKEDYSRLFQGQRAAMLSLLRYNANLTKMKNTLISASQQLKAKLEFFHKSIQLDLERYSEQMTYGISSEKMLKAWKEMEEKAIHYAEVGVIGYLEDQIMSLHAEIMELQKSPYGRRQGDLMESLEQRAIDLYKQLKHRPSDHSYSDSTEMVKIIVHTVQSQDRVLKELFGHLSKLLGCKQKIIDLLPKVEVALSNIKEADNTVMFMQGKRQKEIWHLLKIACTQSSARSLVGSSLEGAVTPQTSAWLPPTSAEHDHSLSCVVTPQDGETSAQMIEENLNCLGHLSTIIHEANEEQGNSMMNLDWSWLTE
The procedure, abridged: as §1

Sequence of IR(h) (P06213 28-1382): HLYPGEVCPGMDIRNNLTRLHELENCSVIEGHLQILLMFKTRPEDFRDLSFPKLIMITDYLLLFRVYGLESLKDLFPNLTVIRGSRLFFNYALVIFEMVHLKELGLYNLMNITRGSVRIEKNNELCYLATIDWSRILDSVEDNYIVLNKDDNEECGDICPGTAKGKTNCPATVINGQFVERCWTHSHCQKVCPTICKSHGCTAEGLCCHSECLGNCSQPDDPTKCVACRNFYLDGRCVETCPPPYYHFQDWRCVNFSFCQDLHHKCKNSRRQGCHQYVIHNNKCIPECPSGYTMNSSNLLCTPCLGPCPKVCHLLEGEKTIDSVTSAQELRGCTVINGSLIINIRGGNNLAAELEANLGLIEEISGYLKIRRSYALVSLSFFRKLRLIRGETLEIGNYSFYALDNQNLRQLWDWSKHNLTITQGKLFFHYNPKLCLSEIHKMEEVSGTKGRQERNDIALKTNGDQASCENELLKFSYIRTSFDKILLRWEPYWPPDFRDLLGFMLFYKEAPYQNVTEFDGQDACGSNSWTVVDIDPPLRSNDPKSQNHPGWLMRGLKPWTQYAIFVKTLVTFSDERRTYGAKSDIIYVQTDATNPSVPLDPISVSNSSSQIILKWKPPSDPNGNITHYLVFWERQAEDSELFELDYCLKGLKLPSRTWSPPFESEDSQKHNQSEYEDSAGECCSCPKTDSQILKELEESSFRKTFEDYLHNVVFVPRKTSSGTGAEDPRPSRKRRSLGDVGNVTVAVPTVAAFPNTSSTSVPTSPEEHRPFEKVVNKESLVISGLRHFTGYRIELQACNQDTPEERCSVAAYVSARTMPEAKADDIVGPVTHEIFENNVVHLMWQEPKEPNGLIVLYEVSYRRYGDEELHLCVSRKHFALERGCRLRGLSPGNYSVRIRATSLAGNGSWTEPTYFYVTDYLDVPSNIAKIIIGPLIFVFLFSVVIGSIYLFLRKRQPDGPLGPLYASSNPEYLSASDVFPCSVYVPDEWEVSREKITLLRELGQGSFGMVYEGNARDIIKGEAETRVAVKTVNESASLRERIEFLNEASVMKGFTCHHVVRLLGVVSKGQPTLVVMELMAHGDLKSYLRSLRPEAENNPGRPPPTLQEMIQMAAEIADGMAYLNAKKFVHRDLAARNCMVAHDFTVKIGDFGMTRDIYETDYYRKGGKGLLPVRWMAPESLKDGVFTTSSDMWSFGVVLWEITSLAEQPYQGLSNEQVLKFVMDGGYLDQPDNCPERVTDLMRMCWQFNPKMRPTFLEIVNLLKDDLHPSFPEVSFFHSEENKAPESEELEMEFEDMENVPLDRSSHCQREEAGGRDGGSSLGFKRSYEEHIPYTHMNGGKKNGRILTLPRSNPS
Sequence of MAPK1(h) (P27361 whole entry): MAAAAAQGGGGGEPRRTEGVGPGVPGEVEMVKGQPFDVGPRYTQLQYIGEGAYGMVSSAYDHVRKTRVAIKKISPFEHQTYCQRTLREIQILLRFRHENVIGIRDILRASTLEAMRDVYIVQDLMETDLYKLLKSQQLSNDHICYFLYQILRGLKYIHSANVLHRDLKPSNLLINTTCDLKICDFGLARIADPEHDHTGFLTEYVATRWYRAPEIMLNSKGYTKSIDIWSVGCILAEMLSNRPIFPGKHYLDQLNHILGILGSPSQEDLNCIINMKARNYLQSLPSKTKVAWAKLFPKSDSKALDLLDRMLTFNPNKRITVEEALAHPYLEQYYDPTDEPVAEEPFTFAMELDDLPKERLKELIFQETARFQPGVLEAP
Sequence of CK2(h) (P68400 whole entry): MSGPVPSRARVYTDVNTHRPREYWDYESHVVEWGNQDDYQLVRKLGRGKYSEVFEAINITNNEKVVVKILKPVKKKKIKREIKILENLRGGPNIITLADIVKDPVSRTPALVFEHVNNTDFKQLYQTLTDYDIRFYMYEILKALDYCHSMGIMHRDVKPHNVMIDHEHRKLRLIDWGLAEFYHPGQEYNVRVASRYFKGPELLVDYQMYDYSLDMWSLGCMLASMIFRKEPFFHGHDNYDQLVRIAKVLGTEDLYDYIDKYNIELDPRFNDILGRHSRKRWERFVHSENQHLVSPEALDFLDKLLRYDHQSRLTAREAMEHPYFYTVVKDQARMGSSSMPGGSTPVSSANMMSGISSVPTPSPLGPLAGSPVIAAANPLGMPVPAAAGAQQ
Sequence of CK2(h) (P67870 whole entry partner): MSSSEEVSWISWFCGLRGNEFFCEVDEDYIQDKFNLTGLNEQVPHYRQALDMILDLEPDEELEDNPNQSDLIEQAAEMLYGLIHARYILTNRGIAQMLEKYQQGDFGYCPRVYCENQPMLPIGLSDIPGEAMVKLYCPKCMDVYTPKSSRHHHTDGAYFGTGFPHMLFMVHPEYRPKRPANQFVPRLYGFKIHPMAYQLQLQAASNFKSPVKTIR
Sequence of MSK1(h) (O75582 whole entry): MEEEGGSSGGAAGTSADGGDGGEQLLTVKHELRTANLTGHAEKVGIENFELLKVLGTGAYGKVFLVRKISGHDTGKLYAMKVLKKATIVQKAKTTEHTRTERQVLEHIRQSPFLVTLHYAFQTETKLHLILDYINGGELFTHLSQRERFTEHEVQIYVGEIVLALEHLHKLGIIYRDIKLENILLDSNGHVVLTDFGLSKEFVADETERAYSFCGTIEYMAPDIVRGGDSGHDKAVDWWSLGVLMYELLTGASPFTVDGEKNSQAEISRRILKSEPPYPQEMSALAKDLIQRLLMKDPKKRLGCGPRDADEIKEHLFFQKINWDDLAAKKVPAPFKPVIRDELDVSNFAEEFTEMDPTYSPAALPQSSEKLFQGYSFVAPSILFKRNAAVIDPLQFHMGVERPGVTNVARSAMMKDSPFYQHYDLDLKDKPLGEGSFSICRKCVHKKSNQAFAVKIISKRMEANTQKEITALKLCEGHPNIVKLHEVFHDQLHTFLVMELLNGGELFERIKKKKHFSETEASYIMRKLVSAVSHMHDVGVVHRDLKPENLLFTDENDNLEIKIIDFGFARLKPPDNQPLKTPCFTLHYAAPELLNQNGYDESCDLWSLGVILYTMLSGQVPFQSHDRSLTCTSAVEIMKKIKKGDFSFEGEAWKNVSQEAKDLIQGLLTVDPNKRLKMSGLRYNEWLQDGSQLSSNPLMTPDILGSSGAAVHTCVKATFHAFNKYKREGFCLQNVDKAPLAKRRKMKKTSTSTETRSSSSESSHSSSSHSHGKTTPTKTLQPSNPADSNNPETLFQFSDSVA
Sequence of CK1δ(h) (P48730 whole entry): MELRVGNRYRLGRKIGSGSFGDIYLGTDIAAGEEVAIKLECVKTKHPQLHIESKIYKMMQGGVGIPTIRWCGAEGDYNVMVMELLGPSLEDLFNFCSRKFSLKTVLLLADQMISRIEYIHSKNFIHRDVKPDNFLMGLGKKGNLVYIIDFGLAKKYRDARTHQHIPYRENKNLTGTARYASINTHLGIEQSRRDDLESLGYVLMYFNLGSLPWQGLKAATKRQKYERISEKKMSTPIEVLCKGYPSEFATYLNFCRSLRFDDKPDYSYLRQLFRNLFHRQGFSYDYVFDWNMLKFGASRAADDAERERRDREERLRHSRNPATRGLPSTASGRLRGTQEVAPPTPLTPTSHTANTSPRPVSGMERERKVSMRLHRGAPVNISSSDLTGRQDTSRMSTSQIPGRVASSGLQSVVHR

For the compound `CN(C)c1nc2ccc1CCCCn1cc(c3ccccc31)C1=C(C(=O)NC1=O)c1cn(c3ccccc13)CCC2` [Cpd 1, 31-(dimethylamino)-5,15,25,32-tetraazaheptacyclo[28.2.2.1^5,12.1^18,25.0^6,11.0^13,17.0^19,24]hexatriaconta-1(32),6,8,10,12(36),13(17),18(35),19,21,23,30,33-dodecaene-14,16-dione], the “Activity at Protein Kinase Assays (% of control), ZAP-70(h)” value (“Activity … (% of control), ZAP-70(h)” below) at ZAP-70(h) was 113 % of control. At IR(h), the “Activity at Protein Kinase Assays (% of control), IR(h)” value (from here on “Activity … (% of control), IR(h)”) is given as 91 % of control. Besides, the “Activity at Protein Kinase Assays (% of control), PKA(h)” value (shortened to “Activity … (% of control), PKA(h)”) at PKA(h) is reported as 90 % of control. Moreover, on MSK1(h), the “Activity at Protein Kinase Assays (% of control), MSK1(h)” value (“Activity … (% of control), MSK1(h)” for short) is reported as 36 % of control. The “Activity at Protein Kinase Assays (% of control), CK1δ(h)” value (“Activity … (% of control), CK1δ(h)” for short) on CK1δ(h) was 107 % of control. Further, the “Activity at Protein Kinase Assays (% of control), CK2(h)” value (“Activity … (% of control), CK2(h)” for short) at CK2(h) is 107 % of control. In addition, the “Activity at Protein Kinase Assays (% of control), BTK(h)” value (“Activity … (% of control), BTK(h)” below) at BTK(h) is recorded as 105 % of control. Moreover, the “Activity at Protein Kinase Assays (% of control), MEK1(h)” value (shortened to “Activity … (% of control), MEK1(h)”) on MEK1(h) is listed as 76 % of control. Also, the “Activity at Protein Kinase Assays (% of control), SAPK4(h)” value (from here on “Activity … (% of control), SAPK4(h)”) at SAPK4(h) was 101 % of control. At MAPK1(h), the “Activity at Protein Kinase Assays (% of control), MAPK1(h)” value (from here on “Activity … (% of control), MAPK1(h)”) is on record as 97 % of control. Also, on IKKα(h), the “Activity at Protein Kinase Assays (% of control), IKKα(h)” value (from here on “Activity … (% of control), IKKα(h)”) is reported as 92 % of control.

With `O=C1NC(=O)C2=C1c1cn(c3ccccc13)CCCc1ccc(c(N3CCCC3)n1)CCCn1cc2c2ccccc21` [Cpd 7, 31-pyrrolidin-1-yl-5,15,25,30-tetraazaheptacyclo[27.2.2.1^5,12.1^18,25.0^6,11.0^13,17.0^19,24]pentatriaconta-1(31),6,8,10,12(35),13(17),18(34),19,21,23,29,32-dodecaene-14,16-dione], the “Activity … (% of control), ZAP-70(h)” value at ZAP-70(h) was 121 % of control. In addition, at IR(h), the “Activity … (% of control), IR(h)” value is given as 87 % of control. Moreover, the “Activity … (% of control), PKA(h)” value on PKA(h) is 102 % of control. Besides, on MSK1(h), the “Activity … (% of control), MSK1(h)” value was 104 % of control. Also, on CK1δ(h), the “Activity … (% of control), CK1δ(h)” value is 109 % of control. The “Activity … (% of control), CK2(h)” value at CK2(h) is given as 113 % of control. Moreover, the “Activity … (% of control), BTK(h)” value at BTK(h) is recorded as 104 % of control. At MEK1(h), the “Activity … (% of control), MEK1(h)” value is 98 % of control. On SAPK4(h), the “Activity … (% of control), SAPK4(h)” value was 102 % of control. On MAPK1(h), the “Activity … (% of control), MAPK1(h)” value is on record as 110 % of control. The “Activity … (% of control), IKKα(h)” value at IKKα(h) is reported as 121 % of control.

In the case of `O=C1NC(=O)C2=C1c1cn(c3ccccc13)CCCc1cc(nc(N3CCCC3)c1)CCCn1cc2c2ccccc21` [Cpd 6, 20-pyrrolidin-1-yl-4,14,19,26-tetraazaheptacyclo[24.6.1.1^7,14.1^18,22.0^2,6.0^8,13.0^27,32]pentatriaconta-1(33),2(6),7(35),8,10,12,18(34),19,21,27,29,31-dodecaene-3,5-dione], the “Activity … (% of control), ZAP-70(h)” value on ZAP-70(h) is 115 % of control. Besides, the “Activity … (% of control), IR(h)” value on IR(h) is reported as 110 % of control. Moreover, the “Activity … (% of control), PKA(h)” value at PKA(h) is 104 % of control. Moreover, the “Activity … (% of control), MSK1(h)” value on MSK1(h) was 38 % of control. Besides, the “Activity … (% of control), CK1δ(h)” value at CK1δ(h) is on record as 112 % of control. Further, the “Activity … (% of control), CK2(h)” value at CK2(h) is given as 108 % of control. In addition, on BTK(h), the “Activity … (% of control), BTK(h)” value is recorded as 106 % of control. Also, on MEK1(h), the “Activity … (% of control), MEK1(h)” value is listed as 91 % of control. Besides, the “Activity … (% of control), SAPK4(h)” value on SAPK4(h) is 102 % of control. For the same compound, the “Activity … (% of control), MAPK1(h)” value on MAPK1(h) is given as 99 % of control. Besides, on IKKα(h), the “Activity … (% of control), IKKα(h)” value is recorded as 132 % of control.

Consider `CN(C)c1cc2cc(n1)CCCn1cc(c3ccccc31)C1=C(C(=O)NC1=O)c1cn(c3ccccc13)CCC2` [Cpd 2, 20-(dimethylamino)-4,14,19,26-tetraazaheptacyclo[24.6.1.1^7,14.1^18,22.0^2,6.0^8,13.0^27,32]pentatriaconta-1(33),2(6),7(35),8,10,12,18(34),19,21,27,29,31-dodecaene-3,5-dione], for which, on ZAP-70(h), the “Activity … (% of control), ZAP-70(h)” value is recorded as 103 % of control. Further, the “Activity … (% of control), IR(h)” value at IR(h) is listed as 102 % of control. For the same compound, the “Activity … (% of control), PKA(h)” value on PKA(h) is reported as 95 % of control. Moreover, at MSK1(h), the “Activity … (% of control), MSK1(h)” value is 58 % of control. The “Activity … (% of control), CK1δ(h)” value at CK1δ(h) is listed as 111 % of control. The “Activity … (% of control), CK2(h)” value at CK2(h) was 111 % of control. Also, on BTK(h), the “Activity … (% of control), BTK(h)” value is recorded as 106 % of control. Moreover, the “Activity … (% of control), MEK1(h)” value at MEK1(h) is 93 % of control. Besides, the “Activity … (% of control), SAPK4(h)” value at SAPK4(h) is recorded as 104 % of control. In addition, the “Activity … (% of control), MAPK1(h)” value at MAPK1(h) is reported as 86 % of control. Further, on IKKα(h), the “Activity … (% of control), IKKα(h)” value was 133 % of control.
